Laboratory results as given in patent US11389415B2, “Methods of regulating cannabinoid receptor activity-related disorders and diseases” (The United States of America as represented by the …, priority 2012, dated 2022).
Several values for one entry are separate records, joined by “and”; a condition that tells them apart may be missing. Equal entries are not always repeated.

Tests used:
HepG2 cells [1] = assay: Scratch wound-healing assay, HepG2 cells; type: cell-based, human; settings: HepG2, 1 μM
Procedure: Scratch assays. These assays were carried out essentially as described previously (Fiori et al., Endocrinology 150: 2551-2560, 2009). In brief, cells were seeded in 12-well nontreated polystyrene cell culture plates with flat bottom (Greiner Bio-One, Monroe, N.C.). Once the cells became confluent, a scratch wound was made with a pipette tip and pictured immediately (time 0). […] Cell migration was examined at 12, 24, 36, 48 hours and 12, 18, 24, 48 hours after scratch for the HepG2 and PANC-1 cells, respectively. Images of the same field were taken every 3 hours to determine the rate of cell migration. Images were captured on an Axiovert 200 inverted microscope (Carl Zeiss, Thornwood, N.Y.) mounted with an AxioCam HRc digital camera (Carl Zeiss) and the measurement of scratch area was performed with ImageJ 1.46s software (National Institutes of Health, Bethesda, Md.). Each study was performed in duplicate dishes and repeated at least twice.

HepG2 cells [2] = assay: Cell cycle analysis by flow cytometry in HepG2 cells; type: cell-based, human; settings: HepG2, 1 μM
Procedure: Cell Cycle Analysis. Cell cycle distributions were performed by flow cytometry on propidium iodide-stained nuclei prepared by the NIM technique. DNA histograms of at least 10,000 cells acquired on a Becton-Dickinson FACScanto II (BD Biosciences, San Jose, Calif.) were deconvoluted using the Multicycle program (Phoenix Flow Systems) for estimates of the percentage of cells in the G0/1, S, and G2+M phases of the cell cycle. Debris and doublets were removed from the analysis by software algorithms.

ERK1/2 = ERK1/2 phosphorylation (GPR55 downstream signaling) in PANC-1 cells; type: cell-based, human
Procedure: Western blot analysis. For detection of intracellular signaling proteins, cells were lysed in radioimmunoprecipitation buffer containing EGTA and EDTA (Boston BioProducts, Ashland, Mass.). The lysis buffer contained a protease inhibitor cocktail (Sigma-Aldrich) and phosphatase inhibitor cocktail (Calbiochem, San Diego, Calif.). Equivalent amount of proteins (14 and 54 μg/well for PANC-1 and HepG2 cells, respectively) were separated on 4 to 12% precast gels (Invitrogen, Carlsbad, Calif.) using SDS-polyacrylamide gel electrophoresis under reducing conditions and then electrophoretically transferred onto polyvinylidene fluoride membrane (Invitrogen). Western blots were performed according to standard methods, which involved blocking in 5% non-fat milk and incubated with the antibody of interest, followed by incubation with a secondary antibody conjugated with the enzyme horseradish perodixase. […] The quantification of bands was done by volume densitometry by using ImageJ software. […]
Effect of MNF on O-1602-mediated increase in cell signaling. Serum-starved cells were pretreated in the absence or presence of 1 μM MNF for 10 minutes followed by a 10 minute incubation with 0, 2.5 and 10 μM O-1602 or 10% FBS, after which the levels of total ERK2 and phosphorylated forms of ERK1/2 (pErk1/2, Thr202/Tyr204), were determined by Western blotting technique. […]

[3] = In vitro metabolic stability, human liver microsomes; type: in vitro ADME; settings: 37° C.
Procedure: FIG. 10 presents the data from the in vitro metabolic stability study in which MNF was incubated (in duplicate) with active and heat-inactivated human (HLM) and rat (RLM) liver microsomes and cofactors at 37° C. Aliquots were removed at 0, 15, 30 and 60 minutes and the amount of test compound (MNF) remaining at each time point was determined by LC-MS/MS.

GPR55 = GPR55 (Homo sapiens, UniProt Q9Y2T6); assay: Cellular uptake of TocriFluor T1117 in HepG2 cells; type: cell-based; design: host or cells: HepG2 hepatocarcinoma cells
Chain of GPR55 (Q9Y2T6 whole entry): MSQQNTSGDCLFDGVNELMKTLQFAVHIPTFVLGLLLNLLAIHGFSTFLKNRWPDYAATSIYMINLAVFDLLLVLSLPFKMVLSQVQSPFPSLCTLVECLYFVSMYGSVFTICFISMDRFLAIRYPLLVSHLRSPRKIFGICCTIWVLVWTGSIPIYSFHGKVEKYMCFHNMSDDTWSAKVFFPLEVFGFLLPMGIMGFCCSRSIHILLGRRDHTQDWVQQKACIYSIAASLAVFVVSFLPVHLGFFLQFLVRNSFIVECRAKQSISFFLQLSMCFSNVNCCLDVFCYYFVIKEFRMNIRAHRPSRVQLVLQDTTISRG

[4] = Plasma and brain tissue concentrations after IV administration in Sprague-Dawley rats; type: in vivo, rat; settings: for AUCinf / AUClast / Cmax / t1/2 (hr), elimination phase half life / C^0 (ng/ml), plasma concentration extrapolated to time 0 / Cl (ml/hr/kg), whole body clearance / V (l/kg), apparent volume of distribution: male Sprague-Dawley rats; for AUCinf / AUClast / Cmax / t1/2 (hr), elimination phase half life: plasma
Procedure: To determine plasma and brain tissue concentrations of MNF, the concentrations of MNF and its metabolites in plasma and brain tissue samples obtained from male Sprague-Dawley rats were determined after administration of a single IV dose of 10 mg/kg of MNF. The assays were conducted using an Eclipse XDB-C18 guard column (4.6 mm×12.5 mm) and an Atlantis HILIC column (150×2.1 mm ID, […]). The mobile phase consisted of water containing 0.1% formic acid as Component A and acetonitrile as component B. A linear gradient was run as follows: 0 minutes 95% B; 5 minutes 60% B; 6 minutes 80% B; 10 minutes 95% B at a flow rate of 1.0 ml/minutes. The total run time was 15 minutes per sample. Identification and quantification of the analytes was accomplished using an API-4000 LC-MS/MS in positive electrospray ionization mode and data was acquired employing multiple reaction monitoring (MRM) and the following MRM transitions: MNF (369-200); MNF-Gluc (545-200).
Ten mg/kg MNF was administered IV to male Sprague-Dawley rats and the plasma concentrations of MNF were determined between 10 minutes and 24 hours post administration with the levels measured in 3 animals per time point. In the same study, the concentration of MNF in brain tissue was measured between 10 and 60 minutes after administration with 3 animals per time point. The MNF concentration in brain tissue was 200 ng/mg tissue at 10 minutes after administration and peaked at 30 minutes at 800 ng/mg tissue. The relative distribution between the concentration of MNF in blood (measured as ng/ml) and brain tissue (measured as ng/mg tissue) was 0.2 at 10 minutes and 1.0 at 30 minutes and 60 minutes reflecting an equivalent distribution between both the central and peripheral body compartments. […] Further, the apparent volume of distribution (V) is high indicating extensive tissue distribution.

[5] = 10 mg/kg IV, individual rat, 10 mg/kg

COc1ccc(C[C@@H](C)NC[C@H](O)c2cc(O)cc(O)c2)c2ccccc12 [(R,R′)-MNF, (R,R′)-4′-methoxy-1-naphthylfenoterol]
cell motility, compound alone (HepG2 cells [1]): had no effect on the motility of HepG2 cells
effect on AM251-mediated increase in cell motility (HepG2 cells [1]; AM251 1 μM): significant inhibitory effect toward AM251-mediated increase in cell motility
effect on wound closure evoked by O-1602 (HepG2 cells [1]; O-1602 1 μM): absent in HepG2 cells
G2/M-phase cell population (HepG2 cells [2]; after 6 h (control 13.8±1.1%)): 10.2±0.9%
S-phase cell population (HepG2 cells [2]; after 6 h (control 34.7±0.3%)): 34.1±0.9%
G2/M-phase cell population (HepG2 cells [2]; after 12 h): 14.6±1.8%
S-phase cell population (HepG2 cells [2]; after 12 h): 13.7±1.2%
G2/M-phase cell population (HepG2 cells [2]; after 24 h): 8.9±1.6%
S-phase cell population (HepG2 cells [2]; after 24 h): 24.6±4.2%
number of sub-G1 events, maximum (HepG2 cells [2]; by 12 hours): 21.5±0.7%
effect on O-1602-mediated ERK phosphorylation (ERK1/2; PANC-1, 1 μM pretreatment 10 minutes): displayed exquisite sensitivity to MNF with regard to O-1602-mediated ERK phosphorylation
effect on serum-induced ERK phosphorylation (ERK1/2; PANC-1, 1 μM pretreatment, 10% FBS): potently inhibited serum-induced ERK phosphorylation in both cell lines
stability under the incubation conditions ([3]; heat-inactivated microsome controls): somewhat unstable under the incubation conditions
metabolic stability, MNF levels ([3]; human liver microsomes and cofactors, 0-60 minutes): greater decrease in MNF levels
reduction in T1117 incorporation (GPR55; HepG2, MNF alone (1 μM), 10 nM T1117): ~70%
reduction in T1117 incorporation as compared to vehicle-treated cells (GPR55; HepG2, MNF with AM251 added either before or after the 30-minutes MNF treatment): ~6.8 fold
T1117 uptake (GPR55; HepG2, MNF 1 μM or AM251 10 μM for 1 hour, then T1117 0.1 μM): dramatically reduced
AUCinf ([4]; 10 mg/kg IV, Mean): 4378.0 ng·h/mL
AUClast ([4]; 10 mg/kg IV, Mean): 3519.3 ng·h/mL
Cmax ([4]; 10 mg/kg IV, Mean): 1823.0 ng/mL
t1/2 (hr), elimination phase half life ([4]; 10 mg/kg IV, Mean): 13.8 h
AUCinf [4, 5]: 4103.6 ng·h/mL and 5335.2 ng·h/mL and 3695.2 ng·h/mL
AUClast [4, 5]: 3582.2 ng·h/mL and 4070.7 ng·h/mL and 2905.1 ng·h/mL
Cmax [4, 5]: 1780.7 ng/mL and 2304.9 ng/mL and 1383.4 ng/mL
t1/2 (hr), elimination phase half life [4, 5]: 9.8 h and 18.6 h and 13.0 h
C^0 (ng/ml), plasma concentration extrapolated to time 0 ([4]; 10 mg/kg IV, Mean): 3168.5 ng/mL
Cl (ml/hr/kg), whole body clearance ([4]; 10 mg/kg IV, Mean): 2339.1 mL/h/kg
V (l/kg), apparent volume of distribution ([4]; 10 mg/kg IV, Mean): 45.1 L/kg
C^0 (ng/ml), plasma concentration extrapolated to time 0 [4, 5]: 3033.4 ng/mL and 4131.4 ng/mL and 2340.7 ng/mL
Cl (ml/hr/kg), whole body clearance [4, 5]: 2436.9 mL/h/kg and 1874.4 mL/h/kg and 2706.2 mL/h/kg
V (l/kg), apparent volume of distribution [4, 5]: 34.3 L/kg and 50.4 L/kg and 50.6 L/kg
MNF concentration in brain tissue ([4]; rats, 10 mg/kg IV, 10 minutes after administration): 200 ng/mg tissue
MNF concentration in brain tissue (peak) ([4]; rats, 10 mg/kg IV, 30 minutes after administration): 800 ng/mg tissue
passage through the blood brain barrier ([4]; rats, IV): capable of passing through the blood brain barrier
